pIC50: −log10 of the molar value.
Assays:
[1] = target: T1, PTPN2 (Homo sapiens, UniProt P17706); test: mobility shift enzyme assay with labelled insulin receptor phosphopeptide; type: biochemical
T1 construct: full-length recombinant

[2] = target: T2, PTPN1 (Homo sapiens, UniProt P18031); test: as above; type: biochemical
T2 construct: full-length recombinant
T2 sequence (P18031 whole entry): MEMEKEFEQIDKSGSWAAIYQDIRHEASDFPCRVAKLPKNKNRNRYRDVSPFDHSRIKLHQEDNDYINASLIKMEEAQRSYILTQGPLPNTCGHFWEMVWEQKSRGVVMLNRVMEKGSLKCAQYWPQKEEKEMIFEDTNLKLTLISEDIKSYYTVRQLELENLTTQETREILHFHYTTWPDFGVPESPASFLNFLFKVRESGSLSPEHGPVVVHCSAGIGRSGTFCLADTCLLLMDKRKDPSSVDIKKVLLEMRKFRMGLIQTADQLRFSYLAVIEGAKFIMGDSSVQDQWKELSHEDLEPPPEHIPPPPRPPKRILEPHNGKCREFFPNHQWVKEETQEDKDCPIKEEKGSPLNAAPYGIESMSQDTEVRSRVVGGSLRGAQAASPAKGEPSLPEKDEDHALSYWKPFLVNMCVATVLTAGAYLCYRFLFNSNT

T1 sequence (P17706 whole entry): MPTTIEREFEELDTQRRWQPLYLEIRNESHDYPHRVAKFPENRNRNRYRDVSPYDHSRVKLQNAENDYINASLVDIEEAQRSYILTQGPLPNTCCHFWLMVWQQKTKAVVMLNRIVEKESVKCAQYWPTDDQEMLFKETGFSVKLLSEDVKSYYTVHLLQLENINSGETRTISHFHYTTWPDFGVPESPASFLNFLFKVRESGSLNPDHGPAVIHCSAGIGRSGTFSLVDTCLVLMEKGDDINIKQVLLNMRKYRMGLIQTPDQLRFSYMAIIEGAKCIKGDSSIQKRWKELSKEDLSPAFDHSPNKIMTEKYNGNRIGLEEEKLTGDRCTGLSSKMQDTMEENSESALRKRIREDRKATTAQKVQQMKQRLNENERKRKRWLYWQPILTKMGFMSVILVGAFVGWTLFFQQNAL

`O=C1CN(c2c(O)cc3ccc(NCC4CC4)cc3c2F)S(=O)(=O)N1` [A-650] gave a pIC50 [1] of 8.41 and a pIC50 [2] of 8.55.
